From patent US8906906B2, “Viral replication inhibitors” (Katholieke Universiteit Leuven, priority 2009, dated 2014)

Key:
[1] = target: T1, His6-tagged HIV-1 integrase / flag-LEDGF/p75 interaction (Human immunodeficiency virus type 1 group M subtype B, UniProt P04585); experiment: AlphaScreen assay of LEDGF-integrase interaction inhibition; type: binding; conditions: for IC50: compounds tested from 0.1 up to 100 μM; for inhibition at 100 µM: read-out: % inhibition at 100 μM in IN-LEDGF alphascreen (values marked *)
T1 construct: His6-tagged HIV-1 integrase; made in house
Description: Alphascreen Assay to Measure the LEDGF-Integrase Interaction Inhibitory Activity of Compounds of the Invention
The AlphaScreen assay was performed according to the manufacturer's protocol (Perkin Elmer, Benelux). Reactions were performed in 25 μl final volume in 384-well Optiwell™ microtiter plates (Perkin Elmer). The reaction buffer contained 25 mM Tris-HCl (pH 7.4), 150 mM NaCl, 1 mM MgCl2, 0.01% (v/v) Tween-20 and 0.1% (w/v) bovine serum albumin. His6-tagged integrase (300 nM final concentration) was incubated with the compounds for 30 min at 4° C. The compounds were added at varying concentrations spanning a wide range from 0.1 up to 100 μM. Afterwards 100 nM flag-LEDGF/p75 was added and incubation was prolonged for an additional hour at 4° C. Subsequently 5 μl of Ni-chelate-coated acceptor beads and 5 μl anti-flag donor beads were added to a final concentration of 20 μg/ml of both beads. Proteins and beads were incubated for 1 h at 30° C. in order to allow association to occur. Exposure of the reaction to direct light was omitted as much as possible and the emission of light from the acceptor beads was measured in the EnVision plate reader (Perkin Elmer, Benelux) and analyzed using the EnVision manager software. IN/DNA binding was analyzed in a similar setting using His6-tagged integrase (1 μM final concentration) and an oligodeoxynucleotide mimicking the IN ELISA oligonucleotide substrate (30 nM final concentration). Counterscreens with JPO2 or PogZ, respectively, were essentially performed as described previously.
Expression and purification of recombinant proteins: His6-tagged HIV-1 integrase, 3×flag-tagged LEDGF/p75, MBP-JPO2 and MBP-PogZ were purified for AlphaScreen applications as described previously 23,25,56.

[2] = Cytotoxicity in mock-infected MT-4 cells (MTT); type: cell-based; conditions: human, read-out: CC50 in MT4-IIIB (μm)
Description: A rapid and automated assay procedure was used for the in vitro evaluation of anti-HIV agents. An HTLV-1 transformed T4-cell line MT-4, which was previously shown to be highly susceptible to and permissive for HIV infection, served as the target cell line. Inhibition of the HIV-induced cytopathogenic effect was used as the end point. The viability of both HIV-and mock-infected cells was assessed spectrophotometrically via in situ reduction of 3-(4,5-dimethylthiazol-2-yl)-2,5-diphenyltetrazolium bromide (MTT). The 50% cytotoxic concentration (CC50 in μg/ml) was defined as the concentration of compound that reduced the absorbance of the mock-infected control sample by 50%. The percent protection achieved by the compound in HIV-infected cells was calculated by the following formula: […]
Examples of inhibition of cell proliferation by particular compounds of formula (I) can be found by looking at the respective CC50 values in the MT-4 cell line.
Cells: MT-4 cells (Miyoshi et al., 1982) were grown and maintained in RPMI 1640 medium supplemented with 10% heat-inactivated fetal calf serum, 2 mM I-glutamine, 0.1% sodium bicarbonate, and 20 æg of gentamicin per ml.

[3] = test system: HIV (MT4-IIIB); experiment: Anti-HIV activity: inhibition of HIV-induced cytopathogenic effect in MT-4 cells (MTT); type: cell-based; conditions: Human immunodeficiency virus 1, IIIB

SMILES | IC50 [1] [µM] | CC50 [2] [µM] | EC50 [3] [µM] | inhibition at 100 µM [1] [%]
CCCC(C(=O)O)c1c(C)nc(N(C)C)nc1-c1ccccc1 (stereo not drawn) [cpd 2] | 36.7 | 164 |  | 
CCCC(C(=O)O)c1c(C)nc(/C=C/c2ccccc2)nc1-c1ccccc1 (stereo not drawn) [cpd 6] | 45.6 | 98.7 |  | 
CCCC(C(=O)O)c1c(C)nc(-c2ccc(C)cc2)nc1-c1ccc(C)cc1 (stereo not drawn) [cpd 10] | 30.9 | 110 | 35.9 | 
CCCC(C(=O)O)c1c(C)nc(N(C)C2CCCCC2)nc1-c1ccc(C)cc1 (stereo not drawn) [cpd 12] | 25.2 | 81.8 | 48.3 | 
CCCC(C(=O)O)c1c(C)nc(-c2ccccc2)nc1-c1ccc(C)cc1 (stereo not drawn) [cpd 14] | 22.1 | 120 | 23.4 | 
CCCC(C(=O)O)c1c(C)nc(-c2ccccc2Cl)nc1-c1ccccc1 (stereo not drawn) [cpd 16] |  | > 250 | 152 | 
CCCC(C(=O)O)c1c(C)nc(-c2ccccc2Cl)nc1-c1ccc(C)cc1 (stereo not drawn) [cpd 18] | 89.9 | 125 |  | 
CCCC(C(=O)O)c1c(C)nc(N2CCCCC2)nc1-c1ccccc1 (stereo not drawn) [cpd 20] | 12.5 | 120 | 15.9 | 
CCCC(C(=O)O)c1c(C)nc(N2CCCCC2)nc1-c1ccc(C)cc1 (stereo not drawn) [cpd 22] | 4.74 | 100 | 9.16 | 
CCCC(C(=O)O)c1c(C)nc(-c2ccccc2)nc1-c1ccccc1 (stereo not drawn) [cpd 24] |  | > 125 | 80 | 
CCCC(C(=O)O)c1c(C)nc(-c2ccccc2)nc1-c1cccc(O)c1 (stereo not drawn) [cpd 26] |  | > 125 | 70.9 | 
CCCC(C(=O)O)c1c(C)nc(N2CCCC2)nc1-c1ccc(C)cc1 (stereo not drawn) [cpd 30] | 4.61 | 143 | 16.1 | 
CCCC(C(=O)O)c1c(C)nc(N2CCN(C)CC2)nc1-c1ccc(C)cc1 (stereo not drawn) [cpd 32] | 53.7 | > 250 |  | 
CCCC(C(=O)O)c1c(C)nc(N2CC(C)CC(C)C2)nc1-c1ccc(C)cc1 (stereo not drawn) [cpd 34] | 17.5 | 57 |  | 
CCCC(C(=O)O)c1c(C)nc(N2CCCCCC2)nc1-c1ccc(C)cc1 (stereo not drawn) [cpd 36] | 11.2 | 58 |  | 
CCCC(C(=O)O)c1c(C)nc(N2CCCC(C(=O)NCC(C)C)C2)nc1-c1ccc(C)cc1 (stereo not drawn) [cpd 38] | 10.9 | 144 | 5.97 | 
CCCC(C(=O)O)c1c(C)nc(N2CCc3ccccc3C2)nc1-c1ccc(C)cc1 (stereo not drawn) [cpd 42] | 17.3 | 26 |  | 
CCCC(C(=O)O)c1c(C)nc(N2CCCN(Cc3ccccc3)CC2)nc1-c1ccc(C)cc1 (stereo not drawn) [cpd 44] | 11 | 7 |  | 
CCCC(C(=O)O)c1c(C)nc(N2CCCC(c3nc(C(C)C)no3)C2)nc1-c1ccc(C)cc1 (stereo not drawn) [cpd 46] | 80.8 | 42 |  | 
CCCC(C(=O)O)c1c(C)nc(N2CCCC(Oc3ccccc3)C2)nc1-c1ccc(C)cc1 (stereo not drawn) [cpd 48] | 9.49 | 25 |  | 
CCCC(C(=O)O)c1c(C)nc(N2CCCC(c3ccccc3)C2)nc1-c1ccc(C)cc1 (stereo not drawn) [cpd 50] | 82.2 | 28 |  | 
CCCC(C(=O)O)c1c(C)nc(N2CC[C@H](N(C)C)C2)nc1-c1ccc(C)cc1 (stereo partly drawn) [cpd 52] | 3.62 | 101 |  | 
CCCC(C(=O)O)c1c(C)nc(N2CCC(NC(=O)c3ccccc3)CC2)nc1-c1ccc(C)cc1 (stereo not drawn) [cpd 54] | 3.9 | 67 |  | 

SMILES | IC50 [1] [µM] | CC50 [2] [µM] | EC50 [3] [µM] | inhibition at 100 µM [1] [%]
CCCC(C(=O)O)c1c(C)nc(-c2ccccc2)nc1N1CCN(C)CC1 (stereo not drawn) [cpd 64] |  | > 250 | 197 | 
CCCC(C(=O)O)c1c(C)nc(-c2ccccc2)nc1-c1ccc(C)c(C)c1 (stereo not drawn) [cpd 66] | 28.3 | 120 |  | 
CCCC(C(=O)O)c1c(C)nc(-c2ccccc2)nc1-c1ccc2ccccc2c1 (stereo not drawn) [cpd 68] |  | 53 |  | 61
CCCC(C(=O)O)c1c(C)nc(-c2ccccc2)nc1-c1ccc2c(ccn2C)c1 (stereo not drawn) [cpd 74] |  | 129 |  | 46
CCCC(C(=O)O)c1c(C)nc(-c2ccccc2)nc1N1CCc2ccccc2C1 (stereo not drawn) [cpd 76] | 93 | 74 |  | 
CCCC(C(=O)O)c1c(C)nc(-c2ccccc2)nc1Oc1ccccc1 (stereo not drawn) [cpd 78] |  | 102 |  | 58
CCCC(C(=O)O)c1c(C)nc(-c2ccccc2)nc1-c1ccc2c(c1)OCCN2C (stereo not drawn) [cpd 86] |  | 118 |  | 46
CCCC(C(=O)O)c1c(C)nc(-c2ccccc2)nc1-c1ccc2sccc2c1 (stereo not drawn) [cpd 88] | 66.7 | 121 |  | 
CCCC(C(=O)O)c1c(C)nc(-c2ccccc2)nc1-c1ccc2c(c1)CCCO2 (stereo not drawn) [cpd 90] | 61.9 | 125 |  | 
CCCC(C(=O)O)c1c(C)nc(-c2ccccc2)nc1-c1ccc2ccn(C)c2c1 (stereo not drawn) [cpd 92] |  | 113 |  | 51
CCCC(C(=O)O)c1c(C)nc(-c2ccccc2)nc1-c1ccc2[nH]c(=O)[nH]c2c1 (stereo not drawn) [cpd 100] | 70.8 | 96 |  | 
CCCC(C(=O)O)c1c(C)nc(-c2ccccc2)nc1-c1ccc(C(C)C)cc1 (stereo not drawn) [cpd 106] | 56.6 | 32 |  | 
CCCC(C(=O)O)c1c(C)nc(-c2ccccc2)nc1-c1ccc(C(F)(F)F)cc1 (stereo not drawn) [cpd 108] | 100 | 47 |  | 
CCCC(C(=O)O)c1c(C)nc(-c2ccccc2)nc1-c1ccc(Cl)cc1OC (stereo not drawn) [cpd 110] |  | 94 |  | 40
CCCC(C(=O)O)c1c(C)nc(-c2ccccc2)nc1Cc1ccccc1 (stereo not drawn) [cpd 117] | 6.1 | > 250 |  | 
CCCC(C(=O)O)c1c(C)nc(-c2ccccc2)nc1-c1ccc(C)cc1OC (stereo not drawn) [cpd 120] |  | 124 |  | 48
Cc1ccc(-c2nc(N3CCCCC3)nc(C)c2C(Cc2ccccc2)C(=O)O)cc1 (stereo not drawn) [cpd 126] | 27 | 67 |  | 
CCCC(C(=O)O)c1c(C)nc(N2CCCCC2)nc1-c1cc(F)c(F)cc1F (stereo not drawn) [cpd 142] | 50.5 | 79 |  | 
Cc1ccc(-c2nc(N3CCCCC3)nc(C)c2C(OC(C)(C)C)C(=O)O)cc1 (stereo not drawn) [cpd 154] |  | 118 | 1.06 | 
CCCC(C(=O)O)c1c(C)nc(-c2ccccc2O)nc1-c1ccc(C)cc1 (stereo not drawn) [cpd 158] |  | 119 | 17.8 | 
CCCC(C(=O)O)c1c(C)nc(-c2cnn(C)c2)nc1-c1ccc(C)cc1 (stereo not drawn) [cpd 162] |  | > 250 | 72.1 | 
CCCC(C(=O)O)c1c(C)nc(NCc2ccccc2)nc1-c1ccc(C)cc1 (stereo not drawn) [cpd 168] |  | 128 | 23.9 | 
CCCC(C(=O)O)c1c(C)nc(NCC(C)(C)C)nc1-c1ccc(C)cc1 (stereo not drawn) [cpd 174] |  | 155 | 25 | 
